Results reported in ChEMBL document CHEMBL1146263, “Antibiotic-conjugated polyacrylate nanoparticles: new opportunities for development of anti-MRSA agents” (Bioorg Med Chem Lett, 2007).
Values after ≈ are worked out from the molar mass of the structure shown.

What was measured:
Staphylococcus aureus [1] = test: Antibacterial activity against Staphylococcus aureus ATCC 25923 after 24 hrs by agar dilution method; type: functional; conditions: ATCC 25923, 24 h
Staphylococcus aureus [2] = test: Antibacterial activity against methicillin-resistant Staphylococcus aureus ATCC 43300 after 24 hrs by agar dilution method; type: functional; conditions: ATCC 43300, 24 h
[3] = Toxicity in human dermal fibroblasts; type: cell-based; conditions: fibroblast
[4] = Chemical stability up to 60 degC after 24 hrs; type: physicochemical
Serum = test: Stability in human blood serum after 24 hrs; type: ADME, cell-free

| SMILES | MIC (Staphylococcus aureus [1]) | MIC (Staphylococcus aureus [2]) | Activity [3] | Activity [4] | Activity (Serum) |
| --- | --- | --- | --- | --- | --- |
| C=CC(=O)Oc1ccc(C2C(OC)C(=O)N2SC)cc1 (stereo not given) | 128 µg/mL (≈ 436 µM) | 128 µg/mL (≈ 436 µM) | Non-toxic | Stable | Stable |
| C=CC(=O)Oc1ccc(C2C(OC(=O)C=C)C(=O)N2SC)cc1 (stereo not given) | 128 µg/mL (≈ 384 µM) | 128 µg/mL (≈ 384 µM) | Non-toxic | Stable | Stable |
| C=CC(=O)OC1C(=O)N(SC)C1c1ccccc1Cl (stereo not given) | 128 µg/mL (≈ 430 µM) | 128 µg/mL (≈ 430 µM) | Non-toxic | Stable | Stable |
| C=CC(=O)OCCOC(=O)CCC(=O)OC1C(=O)N(SC)C1c1ccccc1Cl (stereo not given) | 64 µg/mL (≈ 145 µM) | 64 µg/mL (≈ 145 µM) | Non-toxic | Stable | Stable |
